Values of other authors as cited in patent publication US20240043473A1, “NOOTROPIC PEPTIDES FOR TREATING LYSOSOMAL STORAGE DISEASES” (Phoenix Nest Inc., priority 2021, published 2024).

Test system: BDNF and its signaling receptor TrkB in the hippocampus
Conditions: in animals; cited from earlier work

## Semax: synthetic analogue of ACTH(4-10), consisting of ACTH(4-7) and the C-terminal tripeptide Pro-Gly-Pro; MEHFPGP (SEQ ID NO: 1)
  levels and expression of BDNF and its signaling receptor TrkB in the hippocampus: rapidly elevates the levels and expression
  serotonergic and dopaminergic brain systems: rapidly activates
